Here are results for ten molecules from US4363816A, “Tricyclic pyrroles, their compositions and their use” (BYK Gulden Lomberg Chemische Fabrik Gesellschaft mit …, priority 1981, dated 1982).

One data set has as its system gastric secretion. As to the kind of experiment: Inhibition of gastric secretion in rats. It is filed as in vivo. The conditions noted are these: 4 hours after administration of the antiulcerogenic ED50. Here is the method: (§1) The effect of the compounds according to the invention on the formation, in rats, of gastric ulcers provoked by a pylorus ligature and 10 mg/kg of acetylsalicylic acid and on the inhibition of gastric secretion in rats is shown in the following table:
^(+) % inhibition of the gastric secretion (in %) 4 hours after
administration of the antiulcerogenic ED50
(§2) The antiulcerogenic action was tested in accordance with the method using the so-called Shay rat: Rats (female, 180 to 200 g, 4 animals per cage on a high grid) which had been fasted for 24 hours were subjected to ulcer provocation by pylorus ligature (under diethyl ether anaesthesia) and oral administration of 100 mg/10 ml/kg of acetylsalicyclic acid. The substances to be tested are administered orally (10 ml/kg) 1 hour before the pylorus ligature. The wound is closed by means of Michel clamps. 4 hours thereafter, the animals are killed under ether anaesthesia by atlas dislocation, and the stomach is removed. The stomach is opened longitudinally and fixed to a cork tile after the amount of gastric juice secreted (volume) has been determined, the number and size (=diameter) of ulcers present are determined with a stereomicroscope with 10-fold magnification. The product of the degree of severity (according to the following rating scale) and the number of ulcers serves as the individual ulcer index.

The test system of data set [1] is gastric ulcers provoked by a pylorus ligature and acetylsalicylic acid. As to the kind of experiment: Antiulcerogenic action (protective action on the stomach), Shay rat: pylorus ligature plus oral acetylsalicylic acid. The settings on record: for ED50: Rattus norvegicus, po, read-out: Protective action on the stomach, ED50. It is filed as in vivo, rats (female). The procedure: as §1
(§3) compared with the control group
(§4) TQ = therapeutic quotient LD50 /ED50
as §2
(§5) ulcer diameter 0.1-1.4 mm 1
(§6) The reduction in the average ulcer index of each treated group compared with that of the control group (=100%) serves as a measure of the antiulcerogenic effect. The ED50 designates the dose which reduces the average ulcer index by 50%.

Data set [2] is described as follows: Determination of toxicity (LD50, intravenous, mice). The settings on record: mouse, in vivo; intravenous administration to mice; observation 7 days; dose at which 50% of the animals die. The procedure:
LD50 = dose at which 50% of the animals die
The toxicity investigations are carried out on female NMRI mice (body weight: 23 to 30 g). The animals (5 animals per dose) receive feed and water ad libitum. Various doses of the substances are administered intravenously (injection time: 1 minute). The observation period is 7 days. The LD50 (the dose at which 50% of the animals die) is determined by means of linear regression.

A short description of data set [3]: Antiulcerogenic action (protective action on the stomach), Shay rat: pylorus ligature plus oral acetylsalicylic acid. Format: in vivo, rats (female). The settings on record: rat, in vivo; LD50 i.v. mice / ED50 p.o. rats; read-out: TQ LD50/ED50 (therapeutic quotient). The procedure: as §1, §3, §4, §2, §5, §6

One may read the ED50 as the dose that gives a 50% effect, or the effect in half of the subjects. In general, LD50 refers to the dose expected to kill half of the subjects tested.

Molecules are shown by their SMILES. Like-named read-outs stand apart in the source and are kept apart here.

Turning to `Cc1cn(C)c2c1N(C(=O)CN(C)C)c1ccccc1NC2=O` [Serial No. 6, 1,3-Dimethyl-4-dimethylaminoacetyl-1,4,9,10-tetrahydropyrrolo[3,2-b][1,5]benzodiazepin-10-one], the “Gastric Secretion, % inhibition in rats” value in the data set on gastric secretion is on record as 10%. The ED50 in data set [1] (peroral administration to rats 1 hour before pylorus ligature, dose which reduces the ulcer index by 50% compared with the control group) came to 6.5 mg/kg.
In data set [2], `CCCN(CCC)CC(=O)N1c2ccccc2NC(=O)c2c1c(C)cn2C` [Serial No. 7, 1,3-Dimethyl-4-di-(n-propyl)aminoacetyl-1,4,9,10-tetrahydropyrrolo[3,2-b][1,5]benzodiazepin-10-one] gave an LD50 at 168 h of 110 mg/kg. Further, the “Gastric Secretion, % inhibition in rats” value in the data set with gastric secretion is listed as 10%. Also, in data set [1], the ED50 was 6.5 mg/kg. Besides, the therapeutic quotient (LD50/ED50) in data set [3] is 16.9.
In turn, `Cc1cn(C)c2c1N(C(=O)CN1CCN(C)CC1)c1ccccc1NC2=O` [compound 2] returned an LD50 at 168 h in data set [2] of 100 mg/kg. The “Gastric Secretion, % inhibition in rats” value in the data set on gastric secretion is recorded as 25%. Also, the median effective dose (ED50) in data set [1] worked out at 1.4 mg/kg. Moreover, in data set [3], the therapeutic quotient (LD50/ED50) is 71.4.
For the molecule `CCN(CC)CC(=O)N1c2ccccc2NC(=O)c2c1c(C)cn2C` [Serial No. 5, 4-Diethylaminoacetyl-1,3-dimethyl-1,4,9,10-tetrahydropyrrolo[3,2-b][1,5]benzodiazepin-10-one], the median lethal dose (LD50) at 168 h in data set [2] stood at 105 mg/kg. The “Gastric Secretion, % inhibition in rats” value with gastric secretion turned out to be 20%. The median effective dose (ED50) in data set [1] was determined as 6 mg/kg. Moreover, the therapeutic quotient (LD50/ED50) in data set [3] came out at 17.5.
`Cc1cn(C)c2c1N(C(=O)CCN1CCCC1)c1ccccc1NC2=O` [compound 9]: the 50% lethal dose (LD50) at 168 h in data set [2] was 70 mg/kg. For the same molecule, the “Gastric Secretion, % inhibition in rats” value in the data set on gastric secretion is reported as 25%. In addition, the median effective dose (ED50) in data set [1] worked out at 6 mg/kg. Further, the therapeutic quotient (LD50/ED50) in data set [3] turned out to be 11.7.
`Cc1cn(C)c2c1N(C(=O)CCN(C)C)c1ccccc1NC2=O` [compound 10] yielded an LD50 at 168 h in data set [2] of 120 mg/kg. Moreover, in the data set on gastric secretion, the “Gastric Secretion, % inhibition in rats” value turned out to be 21%. The ED50 in data set [1] amounted to 4.5 mg/kg. The therapeutic quotient (LD50/ED50) in data set [3] turned out to be 26.7.
In data set [2], `CCNCC(=O)N1c2ccccc2NC(=O)c2c1c(C)cn2C` [compound 8] registered an LD50 at 168 h of 140 mg/kg. In the data set with gastric secretion, the “Gastric Secretion, % inhibition in rats” value is recorded as 20%. For the same molecule, the median effective dose (ED50) in data set [1] stood at 5.5 mg/kg. The therapeutic quotient (LD50/ED50) in data set [3] stood at 25.5.
Regarding `CC1(C)[C@@H](OC(=O)CCC(=O)O)CC[C@]2(C)[C@H]3C(=O)C=C4[C@@H]5C[C@@](C)(C(=O)O)CC[C@]5(C)CC[C@@]4(C)[C@]3(C)CC[C@@H]12` [Serial No. 1, Carbenoxolone, reference compound], in the data set on gastric secretion, the “Gastric Secretion, % inhibition in rats” value is recorded as 7%. The ED50 in data set [1] is 70 mg/kg. Further, the “antiulcerogenic action, dose/action curve (in words)” value in data set [1] (Shay rat, up to 300 mg/kg for compound 1) was “the dose/action curve is then very severely flattened so that no substantial increase in the antiulcerogenic action can be achieved even at 300 mg/kg”.
`Cc1cn(C)c2c1N(C(=O)CN1CCCC1)c1ccccc1NC2=O` [compound 4]: the median lethal dose (LD50) at 168 h in data set [2] turned out to be 100 mg/kg. For the same molecule, the “Gastric Secretion, % inhibition in rats” value with gastric secretion turned out to be 0%. Besides, the 50% effective dose (ED50) in data set [1] was 2.2 mg/kg. The therapeutic quotient (LD50/ED50) in data set [3] was determined as 45.5.
`Cc1cn(C)c2c1N(C(=O)CN1CCCCC1)c1ccccc1NC2=O` [compound 3]: the LD50 at 168 h in data set [2] amounted to 95 mg/kg. The “Gastric Secretion, % inhibition in rats” value in the data set on gastric secretion amounted to 3%. For the same molecule, the ED50 in data set [1] was found to be 4.5 mg/kg. In addition, the therapeutic quotient (LD50/ED50) in data set [3] came to 21.1.
